Measured values published in ChEMBL document CHEMBL5247647, “Phenothiazine-Based LSD1 Inhibitor Promotes T-Cell Killing Response of Gastric Cancer Cells” (J Med Chem, 2023).
The source made the active and inactive calls. No cut-off for these calls is given here.

Key:
[1] = Toxicity against 615 mouse xenografted with mouse MFC cells in assessed as pathological changes in heart at 10 to 50 mg/kg, po for 14 days by Hematoxylin and Eosin staining based microscopic analysis; type: organism-based; conditions: in vivo, 336 h, dose 10-50 mg/kg, time 14 day
BGC-823 [2] = test: Antiproliferative activity against human BGC-823 cells assessed as inhibition of cell proliferation incubated for 48 hrs by SRB assay; type: functional, cell-based
MFC [3] = test: Antitumor activity against mouse MFC cells xenografted in 615 mouse assessed as increase in IFNgamma expression level in tumor at 10 to 50 mg/kg, po for 14 days by ELISA; type: functional, organism-based; conditions: dose 10-50 mg/kg, time 14.0 day
MFC [4] = test: Antitumor activity against mouse MFC cells xenografted in 615 mouse assessed as increase in infiltration of CD4+ T cells into tumor at 10 to 50 mg/kg, po for 14 days by immunohistochemistry; type: functional, organism-based; conditions: dose 10-50 mg/kg, time 14.0 day
[5] = biological target: T1, Lysine-specific histone demethylase 1A (Homo sapiens, UniProt O60341); test: Inhibition of human LSD1 in human BGC-823 cells assessed as inhibition of H3K4me2 demethylation at 5 to 20 uM incubated for 5 days by Western blot anlaysis; type: cell-based; conditions: dose 5-20 µM, time 5.0 day
MFC [6] = test: Downregulation of PD-L1 expression in mouse MFC cell membrane at 5 to 20 uM incubated for 5 days by Western blot anlaysis; type: functional, cell membranes; conditions: dose 5-20 µM, time 5.0 day
[7] = biological target: T1, Lysine-specific histone demethylase 1A; test: Inhibition of human LSD1 in human LSD1 knockout BGC-823 cells assessed as effect on H3K4me1 methylation at 5 to 20 uM incubated for 5 days by Western blot anlaysis; type: cell-based; conditions: dose 5-20 µM, time 5.0 day
MFC [8] = test: Antitumor activity against mouse MFC cells xenografted in 615 mouse assessed as increase in IL-2 mRNA expression level in tumor at 10 to 50 mg/kg, po for 14 days; type: functional, organism-based; conditions: dose 10-50 mg/kg, time 14.0 day
BGC-823 [9] = test: Downregulation of PD-L1 expression in human LSD1 knockout BGC-823 cells transfected with wild type LSD1 plasmid at 20 uM incubated for 5 days by Western blot anlaysis; type: functional, cell-based; conditions: time 5.0 day
MFC [10] = test: Antitumor activity against mouse MFC cells xenografted in 615 mouse assessed as decrease in Ki67 expression in tumor at 10 to 50 mg/kg, po for 14 days by immunohistochemistry; type: functional, organism-based; conditions: dose 10-50 mg/kg, time 14.0 day
BGC-823 [11] = test: Downregulation of PD-L1 expression in human BGC-823 cell membrane at 5 to 20 uM incubated for 5 days by Western blot anlaysis; type: functional, cell membranes; conditions: dose 5-20 µM, time 5.0 day
MFC [12] = test: Antitumor activity against mouse MFC cells xenografted in 615 mouse assessed as decrease in tumor weight at 10 to 50 mg/kg, po for 14 days; type: functional, organism-based; conditions: dose 10-50 mg/kg, time 14.0 day
MFC [13] = test: Antitumor activity against mouse MFC cells xenografted in 615 mouse assessed as tumor growth suppression at 10 to 50 mg/kg, po for 14 days; type: functional, organism-based; conditions: dose 10-50 mg/kg, time 14.0 day
BGC-823 [14] = test: Downregulation of PD-L1 mRNA expression in human BGC-823 cells at 5 to 5 to 20 uM incubated for 5 days; type: functional, cell-based; conditions: dose 5-20 µM, time 5.0 day
[15] = biological target: T2, Lysine-specific histone demethylase 2 (Homo sapiens) (UniProt Q8NB78); test: Inhibition of recombinant LSD2 (unknown origin) at 10 uM
T2 sequence (whole entry): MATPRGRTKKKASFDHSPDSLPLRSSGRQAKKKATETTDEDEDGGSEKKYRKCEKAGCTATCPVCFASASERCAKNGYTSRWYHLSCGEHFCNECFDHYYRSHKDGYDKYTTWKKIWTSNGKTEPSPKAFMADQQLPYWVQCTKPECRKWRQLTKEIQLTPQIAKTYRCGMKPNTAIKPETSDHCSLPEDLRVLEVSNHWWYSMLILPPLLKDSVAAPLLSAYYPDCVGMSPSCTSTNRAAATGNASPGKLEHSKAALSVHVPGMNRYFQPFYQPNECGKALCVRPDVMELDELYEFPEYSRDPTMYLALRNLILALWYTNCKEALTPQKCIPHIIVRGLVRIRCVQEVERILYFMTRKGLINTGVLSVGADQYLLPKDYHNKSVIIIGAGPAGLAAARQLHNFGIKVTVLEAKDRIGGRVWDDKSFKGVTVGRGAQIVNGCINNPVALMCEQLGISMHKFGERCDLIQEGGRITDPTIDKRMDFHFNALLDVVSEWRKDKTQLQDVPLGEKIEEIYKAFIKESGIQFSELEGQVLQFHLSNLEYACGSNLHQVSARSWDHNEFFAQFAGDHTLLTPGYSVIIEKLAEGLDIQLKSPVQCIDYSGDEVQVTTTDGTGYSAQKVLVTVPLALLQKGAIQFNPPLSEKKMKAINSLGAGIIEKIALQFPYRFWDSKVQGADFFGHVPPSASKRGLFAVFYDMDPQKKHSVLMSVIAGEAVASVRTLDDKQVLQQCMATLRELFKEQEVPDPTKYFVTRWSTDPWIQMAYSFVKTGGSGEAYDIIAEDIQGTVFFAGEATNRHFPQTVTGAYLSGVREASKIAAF

MFC [16] = test: Downregulation of PD-L1 expression in mouse LSD1 knockout MFC cells at 5 to 20 uM incubated for 5 days by Western blot anlaysis; type: functional, cell-based; conditions: dose 5-20 µM, time 5.0 day
MFC [17] = test: Antitumor activity against mouse MFC cells xenografted in 615 mouse assessed as decrease in intratumoral PD-L1 expression at 10 to 50 mg/kg, po for 14 days by Western blot analysis; type: functional, organism-based; conditions: dose 10-50 mg/kg, time 14.0 day
BGC-823 [18] = test: Anticancer activity against human PD-L1 knockout BGC-823 cells assessed as increase in CD3/CD28 activated T-cell killing response at 5 to 20 uM incubated for 5 days by DAPI staining based assay; type: functional; conditions: dose 5-20 µM, time 5.0 day
[19] = Toxicity against 615 mouse xenografted with mouse MFC cells in assessed as body weight change in tumor at 10 to 50 mg/kg, po for 14 days; type: organism-based; conditions: in vivo, 336 h, dose 10-50 mg/kg, time 14 day
MFC [20] = test: Downregulation of PD-L1 expression in mouse MFC cells at 5 to 20 uM incubated for 5 days by Western blot anlaysis; type: functional, cell-based; conditions: dose 5-20 µM, time 5.0 day
MFC [21] = test: Antitumor activity against mouse MFC cells xenografted in 615 mouse assessed as increase in infiltration of CD8+ T cells into tumor at 10 to 50 mg/kg, po for 14 days by immunohistochemistry; type: functional, organism-based; conditions: dose 10-50 mg/kg, time 14.0 day
MAO-B = biological target: T3, MAO-B (Homo sapiens, UniProt P27338); test: Inhibition of recombinant human MAO-B at 10 uM
T3 sequence (P27338 whole entry): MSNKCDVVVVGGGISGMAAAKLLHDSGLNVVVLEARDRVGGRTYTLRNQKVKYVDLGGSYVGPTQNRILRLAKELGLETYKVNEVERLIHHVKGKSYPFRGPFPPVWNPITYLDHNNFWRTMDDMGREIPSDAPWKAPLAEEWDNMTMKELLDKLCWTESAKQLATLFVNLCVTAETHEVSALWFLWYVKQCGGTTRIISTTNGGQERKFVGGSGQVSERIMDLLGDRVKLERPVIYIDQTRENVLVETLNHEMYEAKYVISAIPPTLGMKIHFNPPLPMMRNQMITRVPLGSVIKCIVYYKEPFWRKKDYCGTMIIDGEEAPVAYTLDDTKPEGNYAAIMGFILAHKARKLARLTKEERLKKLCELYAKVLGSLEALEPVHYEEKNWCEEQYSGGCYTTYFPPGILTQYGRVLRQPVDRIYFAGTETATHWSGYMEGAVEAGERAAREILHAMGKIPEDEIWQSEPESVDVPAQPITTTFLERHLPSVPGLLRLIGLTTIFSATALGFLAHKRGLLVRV

inhibition [5]: Active
inhibition [7]: inactive
inhibition [15]: > 10%
inhibition at 10 µM (MAO-B): < 10%
Structure (SMILES): c1ccc2c(c1)Sc1ccccc1N2CCN1CCOCC1
Activity [1]: Non-Toxic
Activity (BGC-823 [2]): inactive
Activity (MFC [3]): Active
Activity (MFC [4]): Active
Activity (MFC [6]): Dose-Dependent Effect
Activity (MFC [8]): Active
Activity (BGC-823 [9]): Active
Activity (MFC [10]): Active
Activity (BGC-823 [11]): Dose-Dependent Effect
Activity (MFC [12]): Active
Activity (MFC [13]): Dose-Dependent Effect
Activity (BGC-823 [14]): Dose-Dependent Effect
Activity (MFC [16]): inactive
Activity (MFC [17]): Dose-Dependent Effect
Activity (BGC-823 [18]): inactive
Activity [19]: Non-Toxic
Activity (MFC [20]): Dose-Dependent Effect
Activity (MFC [21]): Active
